Patent publication US11802120B2, “Fused cyclic urea derivatives as CRHR2 antagonist” (RaQualia Pharma Inc., priority 2018, dated 2023)
pIC50: −log10 of the molar value.

Target: T1, human CRHR2-alpha (Homo sapiens, UniProt Q13324)
T1 sequence (Q13324 1-411): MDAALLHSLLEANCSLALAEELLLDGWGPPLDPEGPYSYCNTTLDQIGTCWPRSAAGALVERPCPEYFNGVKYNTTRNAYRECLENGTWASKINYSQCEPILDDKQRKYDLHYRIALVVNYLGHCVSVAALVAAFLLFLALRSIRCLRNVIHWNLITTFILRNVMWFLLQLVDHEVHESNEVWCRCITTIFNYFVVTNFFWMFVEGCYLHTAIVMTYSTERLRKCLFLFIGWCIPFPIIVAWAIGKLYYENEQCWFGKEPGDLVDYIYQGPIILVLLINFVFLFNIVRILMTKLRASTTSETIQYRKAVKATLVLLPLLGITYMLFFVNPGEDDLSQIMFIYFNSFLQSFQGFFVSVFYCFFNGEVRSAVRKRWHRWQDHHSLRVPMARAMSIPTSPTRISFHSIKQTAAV
Assay: cAMP functional assay for human CRHR2 (LANCE Ultra cAMP, TR-FRET)
Type: cell-based
Details: CHO-K1 cells expressing human CRHR2-alpha, agonist human urocortin2 at EC80, cAMP; read-out: IC50 against CRHR2
Outline: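 First, starved and frozen CHO-K1 cells expressing the receptor are thawed into IBMX-containing HBSS buffer (pH 7.4). Next, compounds are added for 30 min at 25° C. Then agonist at EC80 (urocortin2 or CRF, per receptor) is added for another 30 min, followed by cAMP detection reagents.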

pIC50 | SMILES
> 6.52 | COc1ccc(-n2c(=O)n(C[C@H]3CC[C@H](NC(=O)c4c5c(nn4C)CCCC5)CC3)c3ccccc32)cn1 [Example 221, N-((1r,4r)-4-((3-(6-methoxy-pyridin-3-yl)-2-oxo-2,3-dihydro-1H-benzo[d]imidazol-1-yl)methyl)cyclohexyl)-2-methyl-4,5,6,7-tetrahydro-2H-indazole-3-carboxamide]
> 6.52 | CNC(=O)c1ccc(-n2c(=O)n(C[C@H]3CC[C@H](NC(=O)c4c5ccccc5nn4CC(F)(F)F)CC3)c3ccccc32)cn1 [Example 557, N-((1r,4r)-4-((3-(6-(methylcarbamoyl)pyridin-3-yl)-2-oxo-2,3-dihydro-1H-benzo[d]imidazol-1-yl)methyl)cyclohexyl)-2-(2,2,2-trifluoroethyl)-2H-indazole-3-carboxamide]
> 6.52 | N#Cc1cccnc1-n1c(=O)n(C[C@H]2CC[C@H](NC(=O)c3cc(Cl)cnc3C(F)(F)F)CC2)c2ccccc21 [Example 312, 5-chloro-N-((1r,4r)-4-((3-(3-cyanopyridin-2-yl)-2-oxo-2,3-dihydro-1H-benzo[d]imidazol-1-yl)methyl)cyclo-hexyl)-2-(trifluoromethyl) nicotinamide]
> 6.52 | CN1CCN(c2ccc(-n3c(=O)n(C[C@H]4CC[C@H](NC(=O)c5cc(Cl)cnc5C(F)F)CC4)c4ccccc43)cn2)C1=O [Example 524, 5-chloro-2-(difluoromethyl)-N-((1r,4r)-4-((3-(6-(3-methyl-2-oxoimidazolidin-1-yl)pyridin-3-yl)-2-oxo-2,3-dihydro-1H-benzo[d]imidazol-1-yl)methyl)cyclohexyl) nicotinamide]
> 6.52 | Cc1ncc(Cl)cc1C(=O)N[C@H]1CC[C@H](Cn2c(=O)n(-c3ccc4c(c3)oc(=O)n4C)c3ccccc32)CC1 [Example 164, 5-chloro-2-methyl-N-((1r,4r)-4-((3-(3-methyl-2-oxo-2,3-dihydrobenzo[d]oxazol-6-yl)-2-oxo-2,3-dihydro-1H-benzo [d]imidazol-1-yl)methyl)cyclo-hexyl)nicotinamide]
> 6.52 | Cc1ncc(Cl)cc1C(=O)N[C@H]1CC[C@H](Cn2c(=O)n(-c3ccc(N4CCCC4=O)nc3)c3ccccc32)CC1 [Example 111, 5-chloro-2-methyl-N-((1r,4r)-4-((2-oxo-3-(6-(2-oxopyrrolidin-1-yl)pyridin-3-yl)-2,3-dihydro-1H-benzo[d]imidazol-1-yl)methyl)cyclohexyl)nicotinamide]
> 6.52 | CNc1ncc(-n2c(=O)n(C[C@H]3CC[C@H](NC(=O)c4cc(Cl)cnc4C(F)F)CC3)c3ccccc32)cc1F [Example 639, 5-chloro-2-(difluoromethyl)-N-((1r,4r)-4-((3-(5-fluoro-6-(methylamino)pyridin-3-yl)-2-oxo-2,3-dihydro-1H-benzo[d]imidazol-1-yl)methyl)cyclohexyl)nicotinamide]
> 6.52 | O=C(N[C@H]1CC[C@H](Cn2c(=O)n(-c3cccc4cccnc34)c3ccccc32)CC1)c1cc(Cl)cnc1C(F)(F)F [Example 353, 5-chloro-N-((1r,4r)-4-((2-oxo-3-(quinolin-8-yl)-2,3-dihydro-1H-benzo[d]imidazol-1-yl)methyl)cyclo-hexyl)-2-(trifluoromethyl) nicotinamide]
> 6.52 | Cc1ncc(Cl)cc1C(=O)N[C@H]1CC[C@H](Cn2c(=O)n(-c3cnc4c(c3)OCCN4)c3ccccc32)CC1 [Example 159, 5-chloro-N-((1r,4r)-4-((3-(3,4-dihydro-2H-pyrido[3,2-b][1,4]oxazin-7-yl)-2-oxo-2,3-dihydro-1H-benzo[d]imidazol-1-yl)methyl)cyclohexyl)-2-methylnicotinamide]
> 6.52 | Cc1ccc(-n2c(=O)n(C[C@H]3CC[C@H](NC(=O)c4cc(Cl)cnc4C(F)F)CC3)c3ccccc32)c(C)n1 [Example 376, 5-chloro-2-(difluoromethyl)-N-((1r,4r)-4-((3-(2,6-dimethyl-pyridin-3-yl)-2-oxo-2,3-dihydro-1H-benzo[d]imidazol-1-yl)methyl)cyclohexyl) nicotinamide]
> 6.52 | Cc1ncc(Cl)cc1C(=O)N[C@H]1CC[C@H](Cn2c(=O)n(-c3cccc4nccn34)c3ccccc32)CC1 [Example 350, 5-chloro-N-((1r,4r)-4-((3-(imidazo[1,2-a]pyridin-5-yl)-2-oxo-2,3-dihydro-1H-benzo [d]imidazol-1-yl)methyl)cyclohexyl)-2-methylnico-tinamide]
> 6.52 | CN(C)c1ccc(-n2c(=O)n(C[C@H]3CC[C@H](NC(=O)c4cc(Cl)cnc4C(F)F)CC3)c3ccccc32)cn1 [Example 381, 5-chloro-2-(difluoromethyl)-N-((1r,4r)-4-((3-(6-(dimethyl-amino)pyridin-3-yl)-2-oxo-2,3-dihydro-1H-benzo[d]imidazol-1-yl)methyl)cyclo-hexyl)nicotinamide]
> 6.52 | CCc1ccc(-n2c(=O)n(C[C@H]3CC[C@H](NC(=O)c4cc(Cl)cnc4C)CC3)c3ccccc32)cn1 [Example 72, 5-chloro-N-((1r,4r)-4-((3-(6-ethylpyridin-3-yl)-2-oxo-2,3-dihydro-1H-benzo[d]imidazol-1-yl)methyl)cyclohexyl)-2-methylnicotinamide]
> 6.52 | N#Cc1cc(F)ccc1-n1c(=O)n(C[C@H]2CC[C@H](NC(=O)c3cc(Cl)cnc3C(F)F)CC2)c2ccccc21 [Example 627, 5-chloro-N-((1r,4r)-4-((3-(2-cyano-4-fluorophenyl)-2-oxo-2,3-dihydro-1H-benzo[d]imidazol-1-yl)methyl)cyclohexyl)-2-(difluoromethyl)nicotinamide]
> 6.52 | Cn1cc(-c2cc(-n3c(=O)n(C[C@H]4CC[C@H](NC(=O)c5cc(Cl)cnc5C(F)F)CC4)c4ccccc43)ccn2)cn1 [Example 699, 5-chloro-2-(difluoromethyl)-N-((1r,4r)-4-((3-(2-(1-methyl-1H-pyrazol-4-yl)pyridin-4-yl)-2-oxo-2,3-dihydro-1H-benzo [d]imidazol-1-yl)methyl)cyclo-hexyl)nicotinamide]
> 6.52 | C=Cc1ccc(-n2c(=O)n(C[C@H]3CC[C@H](NC(=O)c4cc(Cl)cnc4C)CC3)c3ccccc32)cn1 [Example 70, 5-chloro-2-methyl-N-((1r,4r)-4-((2-oxo-3-(6-vinylpyridin-3-yl)-2,3-dihydro-1H-benzo[d]imidazol-1-yl)methyl)cyclohexyl)nicotinamide]
> 6.52 | Cc1cc2cc(-n3c(=O)n(C[C@H]4CC[C@H](NC(=O)c5cc(Cl)cnc5C(F)F)CC4)c4cccnc43)cnc2n1C [Example 708, 5-chloro-2-(difluoromethyl)-N-((1r,4r)-4-((3-(1,2-dimethyl-1H-pyrrolo[2,3-b]pyridin-5-yl)-2-oxo-2,3-dihydro-1H-imidazo[4,5-b]pyridin-1-yl)methyl)cyclohexyl)nicotinamide]
> 6.52 | Cc1ncc(Cl)cc1C(=O)N[C@H]1CC[C@H](Cn2c(=O)n(-c3ccncc3Cl)c3ccccc32)CC1 [Example 262, 5-chloro-N-((1r,4r)-4-((3-(3-chloropyridin-4-yl)-2-oxo-2,3-dihydro-1H-benzo[d]imidazol-1-yl)methyl)cyclo-hexyl)-2-methylnicotinamide]
> 6.52 | CC(=O)N1CCc2cc(-n3c(=O)n(C[C@H]4CC[C@H](NC(=O)c5cc(Cl)cnc5C)CC4)c4ccccc43)ccc2C1 [Example 218, N-((1r,4r)-4-((3-(2-acetyl-1,2,3,4-tetrahydroisoquinolin-6-yl)-2-oxo-2,3-dihydro-1H-benzo[d]imidazol-1-yl)methyl)cyclohexyl)-5-chloro-2-methylnicotinamide]
